Reference: patent US20220362405A1, “COMPOSITIONS AND METHODS FOR TREATING LIVER DISEASE” (UNIVERSITY OF PITTSBURGH-OF THE COMMONWEALTH SYSTEM OF …, priority 2019, published 2022)

System: AKT
Assay: AKT inhibition in normal human hepatocytes (western blot)
Assay type: cell-based
Conditions: 5 μM MK-2206, 24 hours, freshly isolated normal human hepatocytes, preliminary experiments
Text: Protein extraction and Western blotting. To perform the protein expression analysis, the isolated hepatocytes were divided in two fractions; one fraction was used for total protein extraction, according to standard procedures previously described (Bell A W et al., 2006) and the other fraction was used for nuclear protein isolation. For nuclear protein isolation, between 1×10^7 and 5×10^7 isolated hepatocytes per patient were washed and harvested in 40 mmol/L Tris (pH 7.6), 14 mmol/L NaCl, and 1 mmol/L EDTA, then centrifuged (5 min, 100g). Cell pellets were suspended in 2 mL of hypotonic buffer [10 mmol/L HEPES (pH 7.9), 10 mmol/L NaH2PO4, 1.5 mmol/L MgCl2, 1 mmol/L DTT, 0.5 mmol/L spermidine, and […] with protease and phosphatase inhibitor cocktails (Sigma, St. Louis, Mo.)]. Following 10 minutes of incubation on ice, samples were homogenized in a Dounce homogenizer and then centrifuged (5 min, 800 g). Cell lysis was monitored with trypan blue stain. Supernatants were saved as cytoplasmic extracts. The nuclei pellets were washed two additional times in the same buffer.
Nuclear proteins were extracted in 50-100 μL of hypertonic buffer [30 mmol/L HEPES (pH 7.9), 25% glycerol, 450 mmol/L NaCl, 12 mmol/L MgCl2, 1 mmol/L DTT, and 0.1 mmol/L EDTA with protease and phosphatase inhibitor cocktails (Sigma, St. Louis, Mo.)] for 45 minutes at 4° C. with continuous agitation. Extracts were centrifuged at 30,000 g, and the supernatants were collected and dialyzed for 2 hours against the same solution but containing 150 mmol/L NaCl. Protein concentration was determined by the Bicinchoninic Acid assay (Sigma, St. Louis, Mo.).
Western blot analysis performed according to standard procedures (Natarajan A et al., 2007). The intensity of each protein band was quantitated using National Institutes of Health Image J software. The primary antibodies and its dilutions are listed in the above shown Table 2.
AKT Inhibition in Normal Human Hepatocytes. Normal human hepatocytes (1 million cells/well) were cultured on collagen-coated wells. […]

## NC1(c2ccc(-c3nc4ccn5c(=O)[nH]nc5c4cc3-c3ccccc3)cc2)CCC1 [MK-2206]
  acetylated nuclear HNF4α expression reduced compared with nontreated controls: 14%
  activated AKT(Thr308) expression reduced compared with nontreated controls: 80%
  nuclear HNF4α expression reduced compared with nontreated controls: 25%
